Measurements published in PubChem BioAssay AID1963448 (Molecular Pharmacology Branch, DTP, NCI, 2024).
pIC50: −log10 of the molar value. Blank lines part the entries; values can stand above or below the compound they belong to.

Test system: 616215-338-R-J1-PDC complex spheroid growth, % test/control
Test: Anticancer human tumor 616215-338-R-J1-PDC patient-derived colon adenocarcinoma cell line growth inhibition [Asc]
Conditions: for pIC50: curve of first compound; for viability, T/C: stronger effect = lower value
Method: Multicellular complex tumor spheroid response to apoptosis pathway targeting inhibitors Alrizomadlin, Pelcitoclax, and Dasminapant in combination with a variety of drugs and investigational agents in selected tumor cell lines
The MDM2 inhibitor alrizomadlin, the Bcl-2/Bcl-xL inhibitor pelcitoclax, and the IAPs inhibitor dasminapant were evaluated both individually and in combination with standard of care and investigational anticancer small molecules within a complex spheroid model of solid tumors. . Complex spheroids include a stromal component modeled by human endothelial cells (HUVEC) and fibroblasts modeled by human mesenchymal stem cells (MSCs). The concentration ranges selected for each drug and investigational agent were based upon clinically achievable concentrations if the clinical Cmax of the agent was known.
Compounds. The drugs and investigational agents: alrizomadlin (APG-115; NSC831270), pelcitoclax (APG-1252; NSC835773), dasminapant (APG-1387;NSC834197), TAK-243 (NSC785004), copanlisib (NSC809693), olaparib (NSC753686), talazoparib (NSC767125), cobimetinib (NSC 768068), eltanexor (KPT-8602, NSC 794443), abemaciclib (NSC 768073), sotorasib (NSC818433), adagrasib (NSC 831453), MRTX-1133 (NSC 836407), Iadademestat (ORY1001, NSC 806812), and RMC-4630 (NSC839698), were obtained from the NCI Developmental Therapeutics Program Chemical Repository. The FDA-approved anticancer drug set is available from the Developmental Therapeutics Program at https://dtp.cancer.gov/organization/dscb/obtaining/available plates.htm. […] The stock solutions were prepared in dimethyl sulfoxide (DMSO, Sigma-Aldrich, St. Louis, MO, cat. D2650) at 800-fold the tested concentration and stored at -70 degrees C prior to their use. All drugs and investigational agents were tested over a range starting from a high concentration at or near the clinical Cmax and decreasing in half-log increments. If the clinical Cmax for an agent had not been determined, the highest concentration tested was 10 microM.
The patient-derived cancer (PDC) cell lines include five colon adenocarcinomas: 186277-243-T-J2-PDC, 616215-338-R-J1-PDC, 439559-082-T-J2-PDC, 463943-066-T-J2-PDC, and 519858-162-T-J1-PDC; three pancreatic carcinomas: 323965-272-R-J2-PDC, 521955-158-R6-J3-PDC, and 521955-158-R2-J5-PDC; two uterine sarcomas: 327498-152-R-J2-PDC and 993429-296-R-J1-PDC; two rhabdomyosarcomas: 755483-174-R-J1-PDC and 772245-204-R-J1-PDC; two soft tissue sarcomas: 126254-015-R-J1-PDC and 494315-158-R-J1-PDC; two malignant fibrous histiocytomas: 317291-083-R-J1-PDC and 596521-263-R-J1-PDC; two breast carcinomas: 171881-019-R-J1-PDC and 885512-296-R-J2-PDC; and one ovarian carcinoma: 6556581-035-R-J-PDC were obtained from the NCI PDMR, (https://pdmr.cancer.gov). The established cell lines HSSY-2 synovial sarcoma (RRID:CVCL 8719), SYO-1 synovial sarcoma (RRID:CVCL_7146), MPNST malignant peripheral neural sheath tumor were obtained from the Sloan Kettering Institute. The following established cell lines were purchased from the American Type Culture Collection (ATCC, Manassas, VA), Sor the received from the NCI repository:, PANC-1 pancreatic carcinoma (CRL-1469, RRID:CVCL_0480), OVCAR-5 ovarian carcinoma (RRID:CVCL_1628), OVCAR-8 ovarian carcinoma (RRID:CVCL_1629), , MCF-7 breast carcinoma (CRL-12584, RRID:CVCL_0031), MDA-MB-231 breast carcinoma (CRL-12532, RRID:CVCL_0062), NCI-H1876 small cell lung carcinoma (CRL-5902, RRID:CVCL_1503), NCI-H510A small cell lung carcinoma (HTB-184, RRID:CVCL_1565), NCI-H1417 (CRL-5869, RRID:CVCL_1469), and NCI-H196 small cell lung carcinoma (CRL-5823, RRID:CVCL_1509). Dr. Peter Houghton (Greehey Children's Cancer Research Institute, University of Texas Health Science Center, San Antonio, TX) provided Rh-18 rhabdomyosarcoma (RRID:CVCL_1659). Pooled donor human umbilical vein endothelial cells (HUVEC, Lonza, cat. CC-2519) and human mesenchymal stem cells (hMSC, Lonza, cat. PT-2501) were purchased from Lonza (Walkersville, MD).
Cell Culture. […]

[1] = second compound 0.03 µM, first compound 0.00316 µM
[2] = second compound 0.03 µM, first compound 0.01 µM
[3] = second compound 0.03 µM, first compound 0.0316 µM
[4] = second compound 0.03 µM, first compound 0.1 µM
[5] = second compound 0.0949 µM, first compound 0.00316 µM
[6] = second compound 0.0949 µM, first compound 0.01 µM
[7] = second compound 0.0949 µM, first compound 0.0316 µM
[8] = second compound 0.0949 µM, first compound 0.1 µM
[9] = second compound 0.3 µM, first compound 0.00316 µM
[10] = second compound 0.3 µM, first compound 0.01 µM
[11] = second compound 0.3 µM, first compound 0.0316 µM
[12] = second compound 0.3 µM, first compound 0.1 µM
[13] = second compound 0.949 µM, first compound 0.00316 µM
[14] = second compound 0.949 µM, first compound 0.01 µM
[15] = second compound 0.949 µM, first compound 0.0316 µM
[16] = second compound 0.949 µM, first compound 0.1 µM
[17] = second compound 3 µM, first compound 0.00316 µM
[18] = second compound 3 µM, first compound 0.01 µM
[19] = second compound 3 µM, first compound 0.0316 µM
[20] = second compound 3 µM, first compound 0.1 µM
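Note: spheroids exposed to agents for seven days before readout.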
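Throughout, for viability, T/C: 100% = DMSO vehicle control viability.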

pIC50 (second compound 0.03 µM): < 6.00
pIC50 (second compound 0.0949 µM): < 6.00
pIC50 (second compound 0.3 µM): < 6.00
pIC50 (second compound 0.949 µM): < 6.00
pIC50 (second compound 3 µM): 6.82
Structure (SMILES): CCN1CCN(Cc2ccc(Nc3ncc(F)c(-c4cc(F)c5nc(C)n(C(C)C)c5c4)n3)nc2)CC1 + CCN1C(C(=O)NC23CCC(C(=O)O)(CC2)CC3)C(c2cccc(Cl)c2F)C2(C(=O)Nc3cc(Cl)ccc32)C12CCCCC2
viability, T/C [1]: 102%
viability, T/C [2]: 99.2%
viability, T/C [3]: 104%
viability, T/C [4]: 108%
viability, T/C (second compound 0.03 µM, first compound 0.316 µM): 108%
viability, T/C (second compound 0.03 µM, first compound 1 µM): 116%
viability, T/C [5]: 93.6%
viability, T/C [6]: 96%
viability, T/C [7]: 97.2%
viability, T/C [8]: 80.5%
viability, T/C (second compound 0.0949 µM, first compound 0.316 µM): 88.2%
viability, T/C (second compound 0.0949 µM, first compound 1 µM): 75.2%
viability, T/C [9]: 66.2%
viability, T/C [10]: 67%
viability, T/C [11]: 63.3%
viability, T/C [12]: 58.3%
viability, T/C (second compound 0.3 µM, first compound 0.316 µM): 69.5%
viability, T/C (second compound 0.3 µM, first compound 1 µM): 59.9%
viability, T/C [13]: 60.5%
viability, T/C [14]: 66.6%
viability, T/C [15]: 72.1%
viability, T/C [16]: 68.9%
viability, T/C (second compound 0.949 µM, first compound 0.316 µM): 83.6%
viability, T/C (second compound 0.949 µM, first compound 1 µM): 52%
viability, T/C [17]: 48.2%
viability, T/C [18]: 52.4%
viability, T/C [19]: 48.3%
viability, T/C [20]: 56.4%
viability, T/C (second compound 3 µM, first compound 0.316 µM): 54.7%
viability, T/C (second compound 3 µM, first compound 1 µM): 42.2%

pIC50 (second compound 0.03 µM): < 6.52
pIC50 (second compound 0.0949 µM): 7.11
pIC50 (second compound 0.3 µM): 8.19
pIC50 (second compound 0.949 µM): > 9.02
pIC50 (second compound 3 µM): > 9.02
Structure (SMILES): NC(=O)C(=Cn1cnc(-c2cc(C(F)(F)F)cc(C(F)(F)F)c2)n1)c1cncnc1 + CCN1C(C(=O)NC23CCC(C(=O)O)(CC2)CC3)C(c2cccc(Cl)c2F)C2(C(=O)Nc3cc(Cl)ccc32)C12CCCCC2
viability, T/C (second compound 0.03 µM, first compound 0.000949 µM): 89.7%
viability, T/C (second compound 0.03 µM, first compound 0.003 µM): 93.4%
viability, T/C (second compound 0.03 µM, first compound 0.00949 µM): 88.1%
viability, T/C (second compound 0.03 µM, first compound 0.03 µM): 83.7%
viability, T/C (second compound 0.03 µM, first compound 0.0949 µM): 73.8%
viability, T/C (second compound 0.03 µM, first compound 0.3 µM): 56.2%
viability, T/C (second compound 0.0949 µM, first compound 0.000949 µM): 84.4%
viability, T/C (second compound 0.0949 µM, first compound 0.003 µM): 85.4%
viability, T/C (second compound 0.0949 µM, first compound 0.00949 µM): 75.5%
viability, T/C (second compound 0.0949 µM, first compound 0.03 µM): 61.3%
viability, T/C (second compound 0.0949 µM, first compound 0.0949 µM): 48.8%
viability, T/C (second compound 0.0949 µM, first compound 0.3 µM): 28.9%
viability, T/C (second compound 0.3 µM, first compound 0.000949 µM): 60%
viability, T/C (second compound 0.3 µM, first compound 0.003 µM): 57.2%
viability, T/C (second compound 0.3 µM, first compound 0.00949 µM): 48.2%
viability, T/C (second compound 0.3 µM, first compound 0.03 µM): 32.6%
viability, T/C (second compound 0.3 µM, first compound 0.0949 µM): 24.9%
viability, T/C (second compound 0.3 µM, first compound 0.3 µM): 6.51%
viability, T/C (second compound 0.949 µM, first compound 0.000949 µM): 49.2%
viability, T/C (second compound 0.949 µM, first compound 0.003 µM): 48.9%
viability, T/C (second compound 0.949 µM, first compound 0.00949 µM): 35.5%
viability, T/C (second compound 0.949 µM, first compound 0.03 µM): 11.2%
viability, T/C (second compound 0.949 µM, first compound 0.0949 µM): 3.85%
viability, T/C (second compound 0.949 µM, first compound 0.3 µM): 0.63%
viability, T/C (second compound 3 µM, first compound 0.000949 µM): 39.3%
viability, T/C (second compound 3 µM, first compound 0.003 µM): 32.4%
viability, T/C (second compound 3 µM, first compound 0.00949 µM): 17.5%
viability, T/C (second compound 3 µM, first compound 0.03 µM): 3.73%
viability, T/C (second compound 3 µM, first compound 0.0949 µM): 1.87%
viability, T/C (second compound 3 µM, first compound 0.3 µM): 0.41%

pIC50 (second compound 0.03 µM): < 7.00
pIC50 (second compound 0.0949 µM): < 7.00
pIC50 (second compound 0.3 µM): < 7.00
pIC50 (second compound 0.949 µM): < 7.00
pIC50 (second compound 3 µM): < 7.00
Structure (SMILES): NC1CCC(NC2CC2c2ccccc2)CC1 (stereo not given) + CCN1C(C(=O)NC23CCC(C(=O)O)(CC2)CC3)C(c2cccc(Cl)c2F)C2(C(=O)Nc3cc(Cl)ccc32)C12CCCCC2
viability, T/C (second compound 0.03 µM, first compound 0.000316 µM): 106%
viability, T/C (second compound 0.03 µM, first compound 0.001 µM): 98.2%
viability, T/C [1]: 99.7%
viability, T/C [2]: 104%
viability, T/C [3]: 100%
viability, T/C [4]: 103%
viability, T/C (second compound 0.0949 µM, first compound 0.000316 µM): 95.5%
viability, T/C (second compound 0.0949 µM, first compound 0.001 µM): 100%
viability, T/C [5]: 91.3%
viability, T/C [6]: 91.7%
viability, T/C [7]: 93.8%
viability, T/C [8]: 95.2%
viability, T/C (second compound 0.3 µM, first compound 0.000316 µM): 68.9%
viability, T/C (second compound 0.3 µM, first compound 0.001 µM): 67.6%
viability, T/C [9]: 73%
viability, T/C [10]: 65.9%
viability, T/C [11]: 62.4%
viability, T/C [12]: 68%
viability, T/C (second compound 0.949 µM, first compound 0.000316 µM): 73.4%
viability, T/C (second compound 0.949 µM, first compound 0.001 µM): 72.2%
viability, T/C [13]: 83.7%
viability, T/C [14]: 71.7%
viability, T/C [15]: 70.1%
viability, T/C [16]: 72.7%
viability, T/C (second compound 3 µM, first compound 0.000316 µM): 54.6%
viability, T/C (second compound 3 µM, first compound 0.001 µM): 58.9%
viability, T/C [17]: 58.2%
viability, T/C [18]: 62.9%
viability, T/C [19]: 51%
viability, T/C [20]: 54.3%
